Assay results taken from ChEMBL document CHEMBL3745707 (Bioorg Med Chem, 2016).

Assays:
K562 = assay: cells; assay type: functional, cell-based; details: Homo sapiens, K562, 72 h
cells = assay type: functional, cell-based; details: Homo sapiens, DU-145, 72 h
[1] = biological target: Serine/threonine-protein kinase PLK2 (Homo sapiens, UniProt Q9NYY3); assay: Inhibition of human recombinant PLK2 using recombinant dephosphorylated bovine alpha- casein as substrate after 30 mins by scintillation counting analysis in presence of gamma-32P-ATP
Serine/threonine-protein kinase PLK2, sequence (Q9NYY3 whole entry): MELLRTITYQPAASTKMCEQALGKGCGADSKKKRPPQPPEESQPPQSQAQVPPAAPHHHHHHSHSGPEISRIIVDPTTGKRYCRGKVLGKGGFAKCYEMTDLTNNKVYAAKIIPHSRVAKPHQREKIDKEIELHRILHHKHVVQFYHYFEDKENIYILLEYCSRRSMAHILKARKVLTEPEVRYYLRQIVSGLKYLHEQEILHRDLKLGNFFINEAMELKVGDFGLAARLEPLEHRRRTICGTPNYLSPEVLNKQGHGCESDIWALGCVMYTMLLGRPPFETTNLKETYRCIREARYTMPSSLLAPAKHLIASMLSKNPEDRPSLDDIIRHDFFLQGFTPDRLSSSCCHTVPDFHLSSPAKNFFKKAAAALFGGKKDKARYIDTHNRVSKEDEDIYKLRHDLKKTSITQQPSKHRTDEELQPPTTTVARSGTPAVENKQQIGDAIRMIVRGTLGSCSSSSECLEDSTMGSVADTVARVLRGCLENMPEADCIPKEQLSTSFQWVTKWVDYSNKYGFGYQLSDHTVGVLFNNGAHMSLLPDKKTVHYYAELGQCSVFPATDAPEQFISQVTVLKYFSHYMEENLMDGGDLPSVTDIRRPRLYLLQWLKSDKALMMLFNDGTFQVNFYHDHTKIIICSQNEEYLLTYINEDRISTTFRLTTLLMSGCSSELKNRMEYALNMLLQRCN

Row | SMILES | IC50 (K562) [µM] | IC50 (cells) [µM] | IC50 [1] [µM]
1 | CCn1c(=O)c(S(=O)(=O)c2ccc(F)cc2F)cc2cnc(Nc3ccc4[nH]ccc4c3)nc21 | 0.75 | 0.75 | –
2 | Cn1c(=O)c(S(=O)(=O)c2ccc(Cl)cc2)cc2cnc(Nc3ccc(Cl)cc3)nc21 | 15 | 15 | –
3 | Cn1c(=O)c(S(=O)(=O)c2ccc(F)cc2F)cc2cnc(Nc3ccc4[nH]ncc4c3)nc21 | 50 | 30 | –
4 | Cn1ccc2cc(Nc3ncc4cc(S(=O)(=O)c5ccc(Cl)cc5Cl)c(=O)n(C)c4n3)ccc21 | 0.75 | 0.75 | –
5 | Cn1c(=O)c(S(=O)(=O)c2ccc(F)cc2)cc2cnc(Nc3ccc4occc4c3)nc21 | 5 | 5 | –
6 | COc1ccc(Nc2ncc3cc(S(=O)(=O)c4ccc(Cl)cc4)c(=O)n(C)c3n2)cc1 | 15 | 30 | –
7 | Cn1c(=O)c(S(=O)(=O)c2ccc(F)cc2)cc2cnc(Nc3cnc4[nH]ccc4c3)nc21 | 0.75 | 0.5 | –
8 | O=c1c(S(=O)(=O)c2ccc(F)cc2F)cc2cnc(Nc3ccc4[nH]ccc4c3)nc2n1CC1CCCC1 | 7 | 10 | –
9 | O=c1c(S(=O)(=O)c2ccc(F)cc2F)cc2cnc(Nc3ccc4[nH]ccc4c3)nc2n1C1CC1 | 0.5 | 0.5 | –
10 | COc1ccc(S(=O)(=O)c2cc3cnc(Nc4ccc5[nH]ccc5c4)nc3n(C)c2=O)cc1 | 0.3 | 0.5 | 0.35
11 | Cn1c(=O)c(S(=O)(=O)c2ccc(F)cc2F)cc2cnc(Nc3ccc4occc4c3)nc21 | 15 | 15 | –
12 | COC(=O)Cn1ccc2cc(Nc3ncc4cc(S(=O)(=O)c5ccc(F)cc5F)c(=O)n(C)c4n3)ccc21 | 5 | 5 | –
13 | Cn1c(=O)c(C(=O)Nc2ccc(F)cc2)cc2cnc(Nc3ccc4[nH]ccc4c3)nc21 | 5 | 5 | –
14 | Cn1c(=O)c(S(=O)(=O)Cc2ccc(F)cc2)cc2cnc(Nc3ccc4[nH]ccc4c3)nc21 | 30 | 30 | –
15 | Cn1c(=O)c(S(=O)(=O)c2ccc(F)cc2)cc2cnc(Nc3cccc4[nH]ccc34)nc21 | 0.75 | 0.75 | 6.08
16 | Cn1c(=O)c(S(=O)(=O)c2ccc(F)cc2F)cc2cnc(Nc3ccc4cc[nH]c4c3)nc21 | 5 | 5 | –
17 | Cc1ccc(S(=O)(=O)c2cc3cnc(Nc4ccc5ncccc5c4)nc3n(C)c2=O)cc1 | 10 | 10 | –
18 | Cn1c(=O)c(S(=O)(=O)c2ccccc2)cc2cnc(Nc3ccc4ncccc4c3)nc21 | 100 | 50 | –
19 | Cc1ccc(S(=O)(=O)c2cc3cnc(Nc4ccc5cc[nH]c5c4)nc3n(C)c2=O)cc1 | 15 | 15 | –
20 | Cn1c(=O)c(S(=O)(=O)c2ccccc2)cc2cnc(Nc3cnc4[nH]ccc4c3)nc21 | 5 | 1 | –
21 | Cn1c(=O)c(S(=O)(=O)Nc2ccc(F)cc2F)cc2cnc(Nc3ccc4[nH]ccc4c3)nc21 | 5 | 5 | –
22 | Cn1c(=O)c(S(=O)(=O)c2ccc(Cl)cc2)cc2cnc(Nc3cnc4[nH]ccc4c3)nc21 | 5 | 5 | –

Row | SMILES | IC50 (K562) [µM] | IC50 (cells) [µM] | IC50 [1] [µM]
23 | Cn1c(=O)c(S(=O)(=O)c2ccc(F)cc2F)cc2cnc(Nc3cnc4[nH]ccc4c3)nc21 | 0.75 | 0.75 | –
24 | Cn1c(=O)c(S(=O)(=O)c2ccc(C(=O)O)cc2)cc2cnc(Nc3ccc4[nH]ccc4c3)nc21 | 5 | 10 | –
25 | Cc1ccc(S(=O)(=O)c2cc3cnc(Nc4cccc5cccnc45)nc3n(C)c2=O)cc1 | 10 | 10 | –
26 | Cc1ccc(S(=O)(=O)c2cc3cnc(Nc4cnc5[nH]ccc5c4)nc3n(C)c2=O)cc1 | 15 | 25 | –
27 | O=c1[nH]c2nc(Nc3ccc4[nH]ccc4c3)ncc2cc1S(=O)(=O)c1ccc(F)cc1F | 15 | 15 | –
28 | Cn1c(=O)c(S(=O)(=O)c2ccc(F)cc2)cc2cnc(Nc3ccc4cc[nH]c4c3)nc21 | 10 | 10 | –
29 | Cn1c(=O)c(S(=O)(=O)c2ccc(F)cc2F)cc2cnc(Nc3ccc4c(c3)C(=O)C(=O)N4)nc21 | 30 | 75 | –
30 | COc1ccc(S(=O)(=O)c2cc3cnc(Nc4cccc5[nH]ccc45)nc3n(C)c2=O)cc1 | 5 | 5 | –
31 | Cn1c(=O)c(S(=O)(=O)c2ccc(F)cc2F)cc2cnc(Nc3ccc4c(c3)CC(=O)N4)nc21 | 15 | 100 | –
32 | CCCn1c(=O)c(S(=O)(=O)c2ccc(F)cc2F)cc2cnc(Nc3ccc4[nH]ccc4c3)nc21 | 1 | 1 | –
33 | Cc1ccc(S(=O)(=O)c2cc3cnc(Nc4cnc5c(c4)CC(=O)N5)nc3n(C)c2=O)cc1 | 15 | 15 | –
34 | Cn1c(=O)c(S(=O)(=O)c2ccccc2)cc2cnc(Nc3ccc4[nH]ccc4c3)nc21 | 1 | 5 | 1.23
35 | Cn1c(=O)c(S(=O)(=O)Nc2ccc(F)cc2)cc2cnc(Nc3ccc4[nH]ccc4c3)nc21 | 5 | 5 | –
36 | Cn1c(=O)c(S(=O)(=O)c2ccc(F)cc2F)cc2cnc(Nc3ccc4cccc(O)c4n3)nc21 | 5 | 5 | –
37 | Cc1ccc(S(=O)(=O)c2cc3cnc(Nc4cccc5[nH]ccc45)nc3n(C)c2=O)cc1 | 5 | 10 | –
38 | O=c1c(S(=O)(=O)c2ccc(F)cc2F)cc2cnc(Nc3ccc4[nH]ccc4c3)nc2n1C1CCCC1 | 5 | 5 | –
39 | Cn1c(=O)c(S(=O)(=O)c2ccc(Cl)cc2Cl)cc2cnc(Nc3ccc4[nH]ccc4c3)nc21 | 1 | 1 | –
40 | O=c1c(S(=O)(=O)c2ccc(F)cc2F)cc2cnc(Nc3ccc4[nH]ccc4c3)nc2n1CC1CC1 | 1 | 1 | –
41 | Cn1c(=O)c(S(=O)(=O)c2ccccc2)cc2cnc(Nc3ccc4cc[nH]c4c3)nc21 | 10 | 10 | –
42 | Cn1c(=O)c(S(=O)(=O)c2ccc(F)cc2F)cc2cnc(Nc3ccncn3)nc21 | 30 | 50 | –
43 | Cn1ccc2cc(Nc3ncc4cc(S(=O)(=O)c5ccc(F)cc5F)c(=O)n(C)c4n3)ccc21 | 0.75 | 0.75 | –
44 | COC(=O)Cn1c(=O)c(S(=O)(=O)c2ccc(F)cc2F)cc2cnc(Nc3ccc4[nH]ccc4c3)nc21 | 5 | 10 | –

Row | SMILES | IC50 (K562) [µM] | IC50 (cells) [µM] | IC50 [1] [µM]
45 | Cn1c(=O)c(S(=O)(=O)c2ccc(F)cc2)cc2cnc(Nc3ccc4[nH]cnc4c3)nc21 | 10 | 10 | –
46 | Cn1c(=O)c(S(=O)(=O)c2ccc(F)cc2F)cc2cnc(Nc3ccc4sccc4c3)nc21 | 0.5 | 0.5 | –
47 | Cn1c(=O)c(S(=O)(=O)c2ccc(Cl)cc2)cc2cnc(Nc3cccc4[nH]ccc34)nc21 | 5 | 5 | –
48 | Cn1c(=O)c(S(=O)(=O)c2ccc(Cl)cc2)cc2cnc(Nc3cnc4ccccc4c3)nc21 | 15 | 15 | –
49 | Cn1c(=O)c(S(=O)(=O)c2ccc(F)cc2F)cc2cnc(NCc3ccc4[nH]ccc4c3)nc21 | 75 | 100 | –
50 | Cn1c(=O)c(S(=O)(=O)c2ccc(F)cc2)cc2cnc(Nc3ccc4[nH]ncc4c3)nc21 | 10 | 5 | –
51 | Cc1ccc(S(=O)(=O)c2cc3cnc(Nc4ccc5[nH]ccc5c4)nc3n(C)c2=O)cc1 | 0.75 | 0.75 | –
52 | Cn1c(=O)c(S(=O)(=O)Cc2ccc(F)cc2F)cc2cnc(Nc3ccc4[nH]ccc4c3)nc21 | 1 | 1 | –
53 | Cn1c(=O)c(S(=O)(=O)c2ccc(Cl)cc2)cc2cnc(Nc3ccc4[nH]ccc4c3)nc21 | 0.1 | 0.25 | –
54 | Cn1c(=O)c(S(=O)(=O)c2ccc(N)cc2F)cc2cnc(Nc3ccc4[nH]ccc4c3)nc21 | 1.5 | 8 | –
55 | Cn1c(=O)c(S(=O)(=O)c2ccc(F)cc2F)cc2cnc(Nc3ccccn3)nc21 | 35 | 75 | –
56 | Cn1c(=O)c(S(=O)(=O)c2ccc(F)cc2[N+](=O)[O-])cc2cnc(Nc3ccc4[nH]ccc4c3)nc21 | 0.9 | 1.5 | –
57 | CN1CCN(c2ccc(Nc3ncc4cc(S(=O)(=O)c5ccc(F)cc5F)c(=O)n(C)c4n3)cc2)CC1 | 5 | 5 | –
58 | O=c1c(S(=O)(=O)c2ccc(F)cc2F)cc2cnc(Nc3ccc4[nH]ccc4c3)nc2n1C1CCCCC1 | 10 | 10 | –
59 | Cn1c(=O)c(C(=O)Nc2ccc(F)cc2F)cc2cnc(Nc3ccc4[nH]ccc4c3)nc21 | 5 | 5 | –
60 | Cc1cc2cc(Nc3ncc4cc(S(=O)(=O)c5ccc(F)cc5F)c(=O)n(C)c4n3)ccc2[nH]1 | 0.75 | 0.75 | –
61 | COc1ccc(Nc2ncc3cc(S(=O)(=O)c4ccc(C)cc4)c(=O)n(C)c3n2)cc1 | 75 | 100 | –
62 | Cn1c(=O)c(S(=O)(=O)c2ccc(F)cc2F)cc2cnc(Nc3ccc4[nH]c(C(=O)O)cc4c3)nc21 | 10 | 10 | –
63 | Cn1c(=O)c(S(=O)(=O)c2ccc(F)cc2F)cc2cnc(Nc3cccc4[nH]ccc34)nc21 | 1.5 | 0.75 | –
64 | Cn1c(=O)c(S(=O)(=O)c2ccc(F)cc2N)cc2cnc(Nc3ccc4[nH]ccc4c3)nc21 | 2 | 3 | –
65 | Cn1c(=O)c(S(=O)(=O)c2ccc(Br)cc2)cc2cnc(Nc3ccc4[nH]ccc4c3)nc21 | 5 | 5 | –
66 | Cn1c(=O)c(S(=O)(=O)c2ccc([N+](=O)[O-])cc2F)cc2cnc(Nc3ccc4[nH]ccc4c3)nc21 | 0.2 | 0.4 | –
